Reference: patent publication US11583524B2, “Inhibitors of the interaction between MDM2 and P53” (Janssen Pharmaceutica NV, priority 2007, dated 2023)

What was measured:
Type in all cases: cell-based, human
[1] = test system: p53 in A2780 cells; experiment: p53 ELISA (preservation of p53 in A2780 cells); details: lowest dose giving at least 140% of the p53 value in the control, 16 hours treatment; for minimal effective concentration: Homo sapiens, read-out: p53-elisa LAD
Method: The capacity of the compounds to preserve p53 in A2780 cells was measured with the p53 enzyme linked immunosorbent assay (ELISA). The p53 assay is a “sandwich” enzyme immunoassay employing two polyclonal antibodies. A polyclonal antibody, specific for the p53 protein, has been immobilized onto the surface of the plastic wells. Any p53 present in the sample to be assayed will bind to the capture antibody. The biotinylated detector polyclonal antibody also recognizes p53 protein, and will bind to any p53, which has been retained by the capture antibody. The detector antibody, in turn, is bound by horseradish peroxidase-conjugated streptavidin. The horseradish peroxidase catalyses the conversion of the chromogenic substrate o-phenylene diamine, the intensity of which is proportional to the amount of p53 protein bound to the plate. The coloured reaction product is quantified using a spectrophotometer. Quantitation is achieved by the construction of a standard curve using known concentrations of purified recombinant HIS tagged p53 protein (see example C.1).
A2780 cells (ATCC) were cultivated in RPMI 1640 supplemented with 10% fetal calf serum (FCS), 2 mM L-glutamine and gentamycin at 37° C. in a humidified incubator with 5% CO2.
A2780 cells were seeded at 20.000 cells per well in a 96 well plate, cultured for 24 hours and treated with compound for 16 hours at 37° C. in a humidified incubator. After incubation, the cells were washed once with phosphate-buffered saline and 30 μl, per well, low salt RIPA buffer (20 mM tris, pH7.0, 0.5 mM EDTA, 1% Nonidet P40, 0.5% DOC, 0.05% SDS, 1 mM PMSF, 1 μg/ml aprotinin and 0.5 μ/ml leupeptin) was added. Plates were placed on ice for 30 minutes to complete the lysis. p53 protein was detected in de lysates by using the sandwich ELISA, described below.
High binding polystyrene EIA/RIA 96 well plates (Costar 9018) were coated with the capture antibody pAb1801 (Abcam ab28-100) at a concentration of 1 μg/ml in coating buffer (0.1 M NaHCO3 pH8.2), 50 μl per well. The antibody was allowed to adhere overnight at 4° C. Coated plates were washed once with phosphate-buffered saline (PBS)/0.05% Tween 20 and 300 μl of blocking buffer (PBS, 1% bovine serum albumins (BSA)) was added, for an incubation period of 2 hours at room temperature. Dilutions of purified recombinant HIS tagged p53 protein, ranging from 3-200 ng/ml, were made in blocking buffer and used as standards.
Plates were washed twice with PBS/0.05% Tween 20 and blocking buffer or standards were added at 80 μl/well. To the standards, 20 μl of lysis buffer was added. The samples were added to the other wells at 20 μl lysate/well. After an overnight incubation at 4° C., plates were washed twice with PBS/0.05% Tween 20. Aliquots of 100 μl secondary polyclonal antibody p53(FL-393) (Tebubio, sc-6243) at a concentration of 1 μg/ml in blocking buffer were added to each well and allowed to adhere for 2 hours at room temperature. Plates were washed three times with PBS/0.05% Tween 20. Detection antibody anti-rabbit HRP (sc-2004, Tebubio) at 0.04 μg/ml in PBS/1% BSA was added and incubated for 1 hour at room temperature. Plates were washed three times with PBS/0.05% Tween 20 and 100 μl of substrate buffer was added (substrate buffer was prepared shortly before use by adding 1 tablet of 10 mg o-phenylene diamine (OPD) from Sigma and 125 μl 3% H2O2 to 25 ml OPD buffer: 35 mM citric acid, 66 mM Na2HPO4, pH5.6). After 5 to 10 minutes, colour reaction was stopped by adding 50 μl stop buffer (1 M H2SO4) per well. The absorbance at dual wavelengths of 490/655 nm was measured using a Biorad micro plate reader and the results were then analyzed.
For each experiment, controls (containing no drug) and a blank incubation (containing no cells or drugs) were run in parallel. The blank value was subtracted from all control and sample values. For each sample, the value of p53 (in absorbance units) was expressed as the percentage of the value for p53 present in the control. […]

[2] = test system: A2780 ovarian cancer cells; experiment: Alamar Blue cell proliferation assay, A2780; details: 4-day incubation; for IC50: Homo sapiens, 96 h, read-out: A2780 cell proliferation inhibition pIC50 (converted)
Method: Cellular activity of the compounds of formula (I) was determined on A2780 tumour cells using a colorimetric assay for cell toxicity or survival (see example C.2).
The human A2780 ovarian cancer cells were a kind gift from Dr. T. C. Hamilton (Fox Chase Cancer Centre, Pennsylvania, U.S.A.). The cells were cultured in RPMI 1640 medium supplemented with 2 mM L-Glutamine, 50 μg/ml gentamicin and 10% fetal calf serum.
(§1) Resazurin was purchased from Aldrich (Prod. No. 199303). Potassium ferrocyanide, potassium ferricyanide, KH2PO4 and K2HPO4 were purchased from Sigma (Prod. Nos. P9387, P8131, P5655 and P8281, respectively).
(§2) Potassium Phosphate Buffer 0.1 M (PPB) was made as follows: 2.72 gram KH2PO4 and 13.86 gram K2HPO4 were dissolved in 500 ml milli-Q H2O, the pH was adjusted to pH 7.4 and the volume was brought to 1 litre with milli-Q H2O; the buffer was filter sterilised and stored at room temperature. Resazurin stock solution (PPB-A) was prepared fresh by dissolving 45 mg resazurin in 15 ml PBS. 30 mM potassium ferricyanide (PPB-B) was prepared by dissolving 0.987 gram potassium ferricyanide in 100 ml PPB. 30 mM potassium ferrocyanide (PPB-C) was prepared by dissolving 1.266 gram potassium ferrocyanide in 100 ml PPB.
(§3) Mixture of PPB-A, PPB-B and PPB-C was prepared by mixing equal volumes of the respective solutions. Resazurin work solution (herein termed “Alamar Blue” solution) was prepared by diluting said mixture 20×(vol/vol) in PPB and filter sterilising; the Alamar Blue solution could be kept at 4° C. for a maximum of 2 weeks.
(§4) For experiments in 384 wells plates the cells were seeded at a density of 5×10^3 cells/ml in Falcon 384-well culture plates (Life Technologies, Merelbeke, Belgium), black with clear bottom, in 45 μl culture medium. Cells were allowed to adhere to plastic for 24 hr. The tested compound was pre-diluted (1/50 in culture medium) and 5 μl pre-diluted compound was added to the wells. Following 4-day incubation, 10 μl of the Alamar Blue solution was added to each well and the cells were further incubated for 5 hrs (A2780) or 6 hrs (U87MG) at 37° C. The fluorescence intensity was measured for each well with a Fluorescence plate reader (Fluorskan, Labsystems, 540 nm excitation and 590 nm emission)
(§5) The antiproliferative activity was calculated as percentage of remaining viable cells in treated versus control (untreated cells) conditions. Within an experiment, the result for each experimental condition is the mean of 3 replicate wells. When appropriate, the experiments were repeated to establish full concentration-response curves. When appropriate, IC50-values (concentration of the drug, needed to reduce cell growth to 50% of the control) were computed using probit analysis for graded data (Finney, D. J., Probit Analyses, 2nd Ed. Chapter 10, Graded Responses, Cambridge University Press, Cambridge 1962). Herein the effects of test compounds are expressed as pIC50 (the negative log value of the IC50-value) (see Table 4).

[3] = test system: U87MG glioma cells; experiment: Alamar Blue cell proliferation assay, U87MG; details: 4-day incubation; for IC50: Homo sapiens, U-87 MG, 96 h, read-out: U87MG cell proliferation inhibition pIC50 (converted)
Method: The human U87MG glioma cells were cultured in DMEM medium supplemented with 2 mM L-Glutamine, 1 mM Sodium Pyruvate, 1.5 g/L Sodium Bicarbonate, 50 μg/ml gentamicin and 10% heat inactivated fetal calf serum. (U87MG cells are human glioblastoma cells with wild type p53. In this cell line MDM2 tightly controls p53 expression).
as §1, §2, §3, §4, §5

A2780 cell proliferation inhibition pIC50 [2]	U87MG cell proliferation inhibition pIC50 [3]	IC50 [2] [µM]	IC50 [3] [µM]	Compound	p53-elisa LAD [1] [µM]	minimal effective concentration [1] [µM]
<5	<5	–	–	Cc1cccc2c(CCNc3ccc(Nc4ccnc5c4CCC5O)c(N4CCOCC4)c3C#N)c[nH]c12 (centres unmarked) [Compound 58]	>10.0	–
–	–	0.0851	0.339	C=C(C)c1cccc2c(CCNc3ccc(Nc4ccnc5c4CCC5O)c(OC)c3F)c[nH]c12 (centres unmarked) [Compound 64]	–	0.3
<5	5.33	–	–	OCc1cc(Nc2cc(Br)c(NCCc3c[nH]c4ccccc34)cc2CO)ccn1 [Compound 52]	>10.0	–
<5	5.29	–	–	COc1ccc2c(CCNc3c(Cl)cc(Nc4ccncc4)cc3Cl)c[nH]c2c1 [Compound 22]	>10.0	–
<5	<5	–	–	COc1ccc2c(CCNc3c(Cl)cc(Nc4ccnc(CO)c4)cc3Cl)c[nH]c2c1 [Compound 27]	>10.0	–
–	–	0.0741	0.468	COc1c(Nc2ccnc3c2CCC3O)ccc(NCCc2c[nH]c3c(C(C)(C)O)cccc23)c1F (centres unmarked) [Compound 63]	–	1
5.08	5.06	–	–	Cc1cccc2c(CCNc3c(Cl)cc(Nc4ccnc5ccccc45)cc3Cl)c[nH]c12 [Compound 30]	1.0	–
<5	<5	–	–	Clc1cc(Nc2ccncc2)cc(Cl)c1NCCc1c[nH]c2ccccc12 [Compound 20]	>10.0	–
<5	<5	–	–	OC1CCc2c(Nc3cc(Cl)c(NCCc4c[nH]c5ccccc45)c(Cl)c3)ccnc21 (centres unmarked) [Compound 33]	3.0	–
<5	<5	–	–	Cc1cccc2c(CCNc3c(Cl)cc(Nc4ccnc5c4CCC5O)cc3Cl)c[nH]c12 (centres unmarked) [Compound 35]	1.0	–
<5	<5	–	–	COc1cccc2c(CCNc3c(Cl)cc(Nc4ccnc(CO)c4)cc3Cl)c[nH]c12 [Compound 28]	>10.0	–
<5	<5	–	–	COc1cccc2c(CCNc3c(Cl)cc(Nc4ccnc5c4CCC5O)cc3Cl)c[nH]c12 (centres unmarked) [Compound 37]	3.0	–
<5	5.48	–	–	COc1cccc2c(CCNc3c(Cl)cc(Nc4ccnc5ccccc45)cc3Cl)c[nH]c12 [Compound 32]	>10.0	–
<5	<5	–	–	Cc1cccc2c(CCNc3c(Cl)cc(Nc4ccncc4)cc3Cl)c[nH]c12 [Compound 21]	>10.0	–
–	–	0.912	1.29	COc1c(Nc2ccnc3c2CCC3O)ccc(NCCc2c[nH]c3c(CO)cccc23)c1F (centres unmarked) [Compound 62]	–	3
<5	5.08	–	–	COc1ccc2c(CCNc3c(Cl)cc(Nc4ccnc5c4CCC5O)cc3Cl)c[nH]c2c1 (centres unmarked) [Compound 36]	10.0	–
<5	–	–	–	OCc1cc(NCCc2c[nH]c3ccccc23)c(Br)cc1Nc1ccnc2c1CCC2O (centres unmarked) [Compound 54]	>10.0	–
5.67	5.14	–	–	Cc1[nH]c2ccccc2c1CCNc1c(Cl)cc(Nc2ccnc3c2CCC3O)cc1Cl (centres unmarked) [Compound 34]	1.0	–
<5	5.18	–	–	COc1ccc2c(CCNc3c(F)cc(Nc4ccncc4)cc3F)c[nH]c2c1 [Compound 13]	>10.0	–
–	–	> 10	> 10	OCc1cc(Nc2cc(F)c(NCCc3c[nH]c4ccccc34)c(F)c2)ccn1 [Compound 14]	–	> 10
<5	<5	–	–	N#Cc1c(NCCc2c[nH]c3ccccc23)ccc(Nc2ccnc3c2CCC3O)c1N1CCOCC1 (centres unmarked) [Compound 57]	>10.0	–
<5	<5	–	–	COc1cccc2c(CCNc3c(Cl)cc(Nc4ccncc4)cc3Cl)c[nH]c12 [Compound 23]	>10.0	–
<5	5.15	–	–	COc1ccc2c(CCNc3c(F)cc(Nc4ccnc5c4CCC5O)cc3F)c[nH]c2c1 (centres unmarked) [Compound 19]	>10.0	–
